Measured values as given in patent publication US8202865B2, “Oxadiazole derivatives” (Merck Serono SA, priority 2007, dated 2012).
Where a name gives a salt, the structure may show the parent alone.

Molecular target: T1, S1P1 (Homo sapiens, UniProt P21453)
T1 construct: expressed in transfected cells; host or cells: CHO cells (membranes)
Assay: 35S-GTPγS binding, S1P1 membranes
Format: biochemical
Conditions: membranes from CHO cells expressing S1P1; 60 min 30° C.
Method: Receptor binding assay: Membranes were prepared from CHO cells expressing S1P1 or S1P3 for use in ligand and […] binding studies. Cells were suspended in 50 mM TRIS, pH 7.4, 2 mM EDTA, 250 mM Sucrose (buffer A) and 1× Complete protease inhibitor cocktail (Roche), and disrupted at 4° C. by N2 decompression using a cell disruption bomb (Parr Instrument). Following centrifugation at 1000 RPM for 10 min at 4° C., the supernatant was suspended in buffer A and centrifuged again at 19000 RPM for 60 min at 4° C. The pellet was then suspended in 10 mM HEPES, pH 7.4, 1 mM EDTA, 250 mM Sucrose (Buffer B), and 1× Complete EDTA-free protease inhibitor cocktail and homogenized using a potter. Membranes were flash frozen in liquid N2 and stored at −80° C. [33P]sphingosine 1-phosphate (3000 Ci/mmol; American Radiolabeled Chemicals, Inc.) was added to test compounds in DMSO. Membranes and WGA SPA beads (GE Healthcare) were added to give a final volume of 100 μl in 96-well plates with assay concentrations of 25 pM or 10 pM [33P]sphingosine 1-phosphate (respectively for S1P1 or S1P3), 50 mM HEPES, pH 7.5, 5 mM MgCl2, 100 mM NaCl, 0.4% fatty acid-free BSA, 1-5 μg/well of proteins and 100 μg/well of WGA SPA beads. Binding was performed for 60 min at RT on a shaker and bound radioactivity was measured on a PerkinElmer 1450 MicroBeta counter. Specific binding was calculated by subtracting remaining radioactivity in the presence of 1000-fold excess of unlabeled S1P. Binding data were analyzed using the GraphPad Prism program.
Measurements of ^35S-GTPγS Binding: Membranes (1 to 10 μg protein) prepared as described above, were incubated in 96-well Scintiplates (PerkinElmer) with test compounds diluted in DMSO, in 180 μl of 20 mM HEPES, pH 7.4, 10 mM MgCl2, 2 μg/well Saponin, 0.2% fatty acid free BSA (Assay buffer), 140 mM NaCl and 1.7 μM GDP. The assay was initiated with the addition of 20 μl of 1.5 nM [35S]-GTPγS (1100 Ci/mmol; GE Healthcare) in assay buffer. After 60 min incubation at 30° C. on a shaker, plates were centrifuged for 10 min at 2000 RPM. Supernatant was discarded and membrane bound radioactivity was measured on a PerkinElmer 1450 MicroBeta counter. Triplicate samples were averaged and expressed as % response relative to S1P activation in absence of compound (n=2).

T1 sequence (P21453 whole entry, species assumed): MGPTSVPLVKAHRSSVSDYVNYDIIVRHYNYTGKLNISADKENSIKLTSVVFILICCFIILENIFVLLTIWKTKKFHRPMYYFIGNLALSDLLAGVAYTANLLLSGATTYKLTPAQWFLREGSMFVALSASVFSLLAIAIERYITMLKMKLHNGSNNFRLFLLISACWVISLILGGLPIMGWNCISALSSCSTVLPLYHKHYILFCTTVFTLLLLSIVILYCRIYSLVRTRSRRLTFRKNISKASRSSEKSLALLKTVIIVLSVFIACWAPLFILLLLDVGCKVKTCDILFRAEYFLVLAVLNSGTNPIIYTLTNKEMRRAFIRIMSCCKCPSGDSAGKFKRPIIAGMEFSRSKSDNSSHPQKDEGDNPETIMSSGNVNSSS

COC(=O)c1ccc(-c2noc(-c3ccc(N(C)C)c(NS(C)(=O)=O)c3)n2)cc1F [Example 71, methyl 4-(5-{4-(dimethylamino)-3-[(methylsulfonyl)amino]phenyl}-1,2,4-oxadiazol-3-yl)-2-fluorobenzoate]
EC50: 481 nM

CCC(=O)Nc1cc(-c2nc(-c3ccc(C(=O)O)c(F)c3)no2)ccc1N1CCCCC1C (centres unmarked) [Example 72, 2-fluoro-4-{5-[4-(2-methylpiperidin-1-yl)-3-(propionylamino)phenyl]-1,2,4-oxadiazol-3-yl}benzoic acid]
EC50: 8510 nM

Cc1ccccc1-c1ccc(-c2nc(-c3ccc(C(=O)O)c(F)c3)no2)cc1CN1CCCC1 [Example 76, 2-fluoro-4-{5-[2′-methyl-2-(pyrrolidin-1-ylmethyl)biphenyl-4-yl]-1,2,4-oxadiazol-3-yl}benzoic acid, Hydrochloride salt]
EC50: 772 nM

CNCc1cc(-c2nc(-c3ccc(C(=O)O)c(F)c3)no2)ccc1-c1ccccc1C [Example 77, 2-fluoro-4-(5-{2′-methyl-2-[(methylamino)methyl]biphenyl-4-yl}-1,2,4-oxadiazol-3-yl)benzoic acid, Hydrochloride salt]
EC50: 2900 nM

CCc1ccccc1-c1ccc(-c2nc(-c3ccc(C(=O)OC)c(F)c3)no2)cc1COC [Example 80, methyl 4-{5-[2′-ethyl-2-(methoxymethyl)biphenyl-4-yl]-1,2,4-oxadiazol-3-yl}-2-fluorobenzoate]
EC50: 274 nM

COCc1cc(-c2nc(-c3ccc(C(=O)O)c(F)c3)no2)ccc1-c1cccc(OC)c1OC [Example 82, 4-{5-[2′,3′-dimethoxy-2-(methoxymethyl)biphenyl-4-yl]-1,2,4-oxadiazol-3-yl}-2-fluorobenzoic acid]
EC50: 1580 nM

Cc1ccccc1-c1ccc(-c2nc(-c3ccc(C(=O)O)c(F)c3)no2)cc1S(C)(=O)=O [Example 83, 2-fluoro-4-{5-[2′-methyl-2-(methylsulfonyl)biphenyl-4-yl]-1,2,4-oxadiazol-3-yl}benzoic acid]
EC50: 3990 nM

COCc1ccccc1-c1ccc(-c2nc(-c3ccc(C(=O)O)c(F)c3)no2)cc1C [Example 87, 2-fluoro-4-{5-[2′-(methoxymethyl)-2-methylbiphenyl-4-yl]-1,2,4-oxadiazol-3-yl}benzoic acid]
EC50: 2010 nM

Cc1ccccc1-c1ccc(-c2nc(-c3ccc(C(=O)O)c(Cl)c3)no2)cc1CS(C)(=O)=O [Example 88, 2-chloro-4-(5-{2′-methyl-2-[(methylsulfonyl)methyl]biphenyl-4-yl}-1,2,4-oxadiazol-3-yl)benzoic acid]
EC50: 4640 nM

COCc1cc(-c2nc(-c3ccc(C(=O)O)c(F)c3)no2)ccc1-c1cc(F)ccc1OC [Example 89, 2-fluoro-4-{5-[5′-fluoro-2′-methoxy-2-(methoxymethyl)biphenyl-4-yl]-1,2,4-oxadiazol-3-yl}benzoic acid]
EC50: 460 nM

CCOc1ccccc1-c1ccc(-c2nc(-c3ccc(C(=O)O)c(F)c3)no2)cc1COC [Example 90, 4-{5-[2′-ethoxy-2-(methoxymethyl)biphenyl-4-yl]-1,2,4-oxadiazol-3-yl}-2-fluorobenzoic acid]
EC50: 479 nM

COCc1cc(-c2nc(-c3ccc(C(=O)O)c(F)c3)no2)ccc1-c1cc(F)ccc1F [Example 91, 4-{5-[2′,5′-difluoro-2-(methoxymethyl)biphenyl-4-yl]-1,2,4-oxadiazol-3-yl}-2-fluorobenzoic acid]
EC50: 410 nM

COCc1cc(-c2nc(-c3ccc(C(=O)O)c(F)c3)no2)ccc1-c1ccc(F)cc1C [Example 94, 2-fluoro-4-{5-[4′-fluoro-2-(methoxymethyl)-2′-methylbiphenyl-4-yl]-1,2,4-oxadiazol-3-yl}benzoic acid]
EC50: 513 nM

COCC#Cc1cc(-c2nc(-c3ccc(C(=O)O)c(F)c3)no2)ccc1-c1ccccc1C [Example 96, 2-fluoro-4-{5-[2-(3-methoxyprop-1-yn-1-yl)-2′-methylbiphenyl-4-yl]-1,2,4-oxadiazol-3-yl}benzoic acid]
EC50: 462 nM
